Test results from paper PMC9866366 (Pharmaceutics, 2023).
Square brackets hold non-standard residues; d marks the D form. Peptide text beside a SMILES is read from it. * marks the point of attachment. Alaψ(CH2NMeCH2CH2OH) = C[C@@H](CN(C)CCO)N*; Decanoyl(2R-Me) = CCCCCCCC[C@@H](C)C(=O)*; Cha = N[C@@H](CC1CCCCC1)C(=O)O; Aib = CC(C)(N)C(=O)O

How the values were obtained:
[1] = test system: DU-145 human prostate cancer cells; details: coculture model with prostate stromal cells (PrSC); cited from earlier work
Source text: (§1) Over the last decade, research in our group has focused on the synthesis and biological evaluation of aminolipopeptides as new generation anticancer therapeutics. They are structurally defined by the α,α-dialkylated amino acid 2-aminoisobutyric acid (Aib) and an acylated N-terminus. A subset of this family, containing the non-natural building block 2-amino-6-hydroxy-4-methyl-8-oxodecanoic acid (AHMOD), has provided two promising leads in leucinostatin A (1) and culicinin D (2).

BxPC-3 = details: MTT assay; only when cultured under minimal glucose in the growth medium; cited from earlier work
Source text: (§2) Intriguingly, there exists a precedence for this observation: the recent discovery of the leucinostatin Y by Kawada’s group was also reported alongside a comparative […] (MTT) assay against the parent peptide leucinostatin A (1) on the human PDAC cell lines PANC-1, BxPC-3, PSN-1, and PK-8 [21]. […] On this basis, we opted to re-evaluate the cytotoxicity of both trichoderins (3) and (4) against BxPC-3 and ...

PANC-1 = details: MTT assay; only when cultured under minimal glucose in the growth medium; cited from earlier work
Source text: as §2

PK-8 = details: MTT assay; only when cultured under minimal glucose in the growth medium; cited from earlier work
Source text: as §2

PSN-1 = details: MTT assay; only when cultured under minimal glucose in the growth medium; cited from earlier work
Source text: as §2

BxPC-3 cells [2] = experiment: PrestoBlue cell viability assay, comparative cytotoxicity assay under 'low glucose'; format: cell-based, human; details: 24 h exposure
Source text: (§3) Endpoint fluorescence was quantified as described above.

PANC-1 cells [3] = experiment: as above; format: cell-based, human; details: 24 h exposure
Source text: as §3

BxPC-3 cells [4] = experiment: CyQUANT Direct cell proliferation assay, comparative cytotoxicity assay under 'low glucose'; format: cell-based, human; details: 24 h exposure
Source text: as §3

PANC-1 cells [5] = experiment: as above; format: cell-based, human; details: 24 h exposure
Source text: as §3

BxPC-3 cells [6] = experiment: Initial cytotoxicity assay (PrestoBlue and CyQUANT Direct Confirmation Assay), 25 mM glucose; format: cell-based, human; details: 3-day (72 h) incubation, RPMI-1640 with 25 mM glucose, up to highest concentration tested of 1 µM, both viability assays
Method: The CyQUANT™ Direct Cell Proliferation Assay was subsequently performed by mixing the CyQUANT™ Direct nucleic acid stain, CyQUANT™ Direct background suppressor I, and PBS (pH 7.4) as per the vendor instructions, then adding 100 µL of this mixture into each well. The plate was returned into the incubator for a further 1 h, and the endpoint fluorescence bottom-read at the Ex/Em wavelength of 485/538 nm on the SpectraMax iD3 plate reader. Blank wells (medium only) and two negative controls—(1) cells + medium, (2) cells + medium + 0.3% v/v DMSO (equivalent to 1 µM peptide)—were set up in the plate for each experiment.

BxPC-3 cells [7] = details: 24 h exposure, medium with or without 5 mM glucose, up to 1 µM
Method: (§4) Cells were seeded at a density of 25,000 cells/well (BxPC-3) and 30,000 cells/well (PANC-1) in Nunc MicroWell 96-Well Black Optical-Bottom Plates with Polymer Base (total volume: 100 µL). Cells were first incubated overnight at 37 °C, 5% CO2 to permit adherence, after which the medium in each well was aspirated, briefly washed once with 100 µL/well of PBS (pH 7.4) and replaced with 100 µL of either RPMI 1640 (BxPC-3, #11879020) or DMEM (PANC-1, #11966025) supplemented with or without 5 mM glucose to create the ‘normal glucose’ and ‘low glucose’ media, respectively. This 5 mM glucose concentration was selected to reflect the physiological concentration of glucose in plasma. Each well was then exposed to the peptides in duplicate at a concentration range of 50.8 pM to 1 µM (BxPC-3) or 457 pM to 9 µM (PANC-1) for 24 h (threefold serial dilution in the corresponding ‘normal glucose’ or ‘low glucose’ media, ten steps). Endpoint fluorescence was quantified as described above.
(§5) Blank correction (wells containing medium only) was first performed on the raw fluorescence–concentration data from the plate reader. Cell viability was then calculated as a percentage by normalizing to the fluorescence of the wells containing the lowest drug concentration (50.8 pM for BxPC-3, 457 pM for PANC-1). The resulting data from three independent experiments (each in technical duplicate) was then plotted on GraphPad Prism 9 and analyzed using the built-in ‘[Inhibitor] vs. response—Variable slope (four parameters)’ equation.

PANC-1 cells [8] = details: 24 h exposure, medium with or without 5 mM glucose, up to 9 µM
Method: as §4, §5

[9] = test system: MDA-MB-468 human breast cancer cells; details: via inhibition of the mTOR signaling pathway; cited from earlier work
Source text: as §1

[10] = 'low glucose' RPMI 1640 (no glucose added), 50.8 pM to 1 µM, three independent experiments each in technical duplicate
[11] = 'low glucose', area under viability-concentration curve, baseline y = 0, three independent experiments in duplicate
[12] = 'low glucose', response (percent viability) at highest concentration 1 µM, three independent experiments in duplicate
[13] = 'low glucose' DMEM (no glucose added), 457 pM to 9 µM, three independent experiments each in technical duplicate
[14] = 'low glucose', response (percent viability) at highest concentration 9 µM, three independent experiments in duplicate

Which “Cytotoxicity against DU-145 (in words)” value [1] does the source give for leucinostatin A [(1)] here?
Its value is “cytotoxic”.

What about the “Cytotoxicity against BxPC-3 (in words)” value (BxPC-3) of the same compound?
The value was “selectively cytotoxic”.

What about the “Cytotoxicity against PANC-1 (in words)” value (PANC-1) of the same compound?
The value was “selectively cytotoxic”.

What about the “Cytotoxicity against PK-8 (in words)” value (PK-8) of the same compound?
Its value is “selectively cytotoxic”.

What about the “Cytotoxicity against PSN-1 (in words)” value (PSN-1) of the same compound?
Its value is “selectively cytotoxic”.

For `CCCCCCCC[C@@H](C)C(=O)N1CCC[C@H]1C(=O)N[C@@H](CC1CCCCC1)C(=O)NC(C)(C)C(=O)NC(C)(C)C(=O)N[C@H](C(=O)N[C@H](C(=O)NC(C)(C)C(=O)NC(C)(C)C(=O)N[C@@H](C)CN(C)CCO)C(C)C)[C@@H](C)CC` [(4)] ({Decanoyl(2R-Me)}-P[Cha][Aib][Aib]IV[Aib][Aib]-{Alaψ(CH2NMeCH2CH2OH)}), which IC50 (BxPC-3 cells [2]; [10]) is on record?
Its IC50 is 400 nM.

What about the “AUC, PrestoBlue, BxPC-3” value (BxPC-3 cells [2]; [11]) of the same compound?
Its value is 5.1 ×10^−5.

What about the “Emax @ 1 µM, PrestoBlue, BxPC-3” value (BxPC-3 cells [2]; [12]) of the same compound?
Its value is 1.7%.

And the IC50 (PANC-1 cells [3]; [13])?
Its IC50 is 500 nM.

What about the “AUC, PrestoBlue, PANC-1” value (PANC-1 cells [3]; [11]) of the same compound?
Its value is 23.1 ×10^−5.

What about the “Emax @ 9 µM, PrestoBlue, PANC-1” value (PANC-1 cells [3]; [14]) of the same compound?
Its value is 2.3%.

What about the IC50 (BxPC-3 cells [4]; [10]) of the same compound?
Its IC50 is 400 nM.

And the “AUC, CyQUANT Direct, BxPC-3” value (BxPC-3 cells [4]; [11])?
The value was 5.4 ×10^−5.

What about the “Emax @ 1 µM, CyQUANT Direct, BxPC-3” value (BxPC-3 cells [4]; [12]) of the same compound?
Its value is 21.0%.

What about the IC50 (PANC-1 cells [5]; [13]) of the same compound?
Its IC50 is 1300 nM.

And the “AUC, CyQUANT Direct, PANC-1” value (PANC-1 cells [5]; [11])?
The value was 39.6 ×10^−5.

What about the “Emax @ 9 µM, CyQUANT Direct, PANC-1” value (PANC-1 cells [5]; [14]) of the same compound?
Its value is 29.2%.

And the “Inhibition of proliferation of BxPC-3 cells (in words)” value (BxPC-3 cells [6])?
The value was “only partially inhibited the proliferation”.

What about the “Cytotoxicity against BxPC-3 under 'low glucose' vs 'normal glucose' (in words)” value (BxPC-3 cells [7]) of the same compound?
Its value is “selective toxicity under the ‘low glucose’ condition”.

What about the “Cytotoxicity against PANC-1 under 'low glucose' vs 'normal glucose' (in words)” value (PANC-1 cells [8]) of the same compound?
Its value is “selective toxicity under the ‘low glucose’ condition”.

For culicinin D [(2)], which “Toxicity against MDA-MB-468 (in words)” value [9] is on record?
Its value is “selectively toxic”.
